Reference: ChEMBL document CHEMBL3875147 (Eur J Med Chem, 2016)
≈ marks a conversion by molar mass, not a printed value.

Tests used:
[1] = system: Salmonella typhi; assay: Antibacterial activity against clinical isolate of Salmonella typhi incubated for 18 to 24 hrs by micro-dilution method; assay type: functional, Salmonella enterica subsp. enterica serovar Typhi; details: Salmonella enterica
[2] = Hemolytic activity in human RBC at 100 uM measured after 1 hr by UV-vis absorbance method relative to control; assay type: ADME, cell-based, Erythrocyte; details: red blood cells (RBC), read-out: Activity
[3] = system: Staphylococcus aureus; assay: Antibacterial activity against Staphylococcus aureus ATCC 25923 incubated for 18 to 24 hrs by micro-dilution method; assay type: functional
[4] = system: Plesiomonas shigelloides; assay: Antibacterial activity against Plesiomonas shigelloides ATCC 14029 incubated for 18 to 24 hrs by micro-dilution method; assay type: functional
[5] = system: Salmonella typhimurium; assay: Antibacterial activity against clinical isolate of Salmonella typhimurium incubated for 18 to 24 hrs by micro-dilution method; assay type: functional, Salmonella enterica subsp. enterica serovar Typhimurium; details: Salmonella enterica
[6] = system: Pseudomonas aeruginosa; assay: Antibacterial activity against Pseudomonas aeruginosa ATCC 27853 incubated for 18 to 24 hrs by micro-dilution method; assay type: functional
[7] = system: Sphingomonas paucimobilis; assay: Antibacterial activity against Sphingomonas paucimobilis MTCC 6362 incubated for 18 to 24 hrs by micro-dilution method; assay type: functional
[8] = system: Pseudomonas aeruginosa; assay: Antibacterial activity against clinical isolate of Pseudomonas aeruginosa incubated for 18 to 24 hrs by micro-dilution method; assay type: functional
[9] = system: Escherichia coli; assay: Antibacterial activity against Escherichia coli ATCC 25922 incubated for 18 to 24 hrs by micro-dilution method; assay type: functional
[10] = system: Staphylococcus epidermidis; assay: Antibacterial activity against Staphylococcus epidermidis ATCC 35984 incubated for 18 to 24 hrs by micro-dilution method; assay type: functional; details: RP62A
[11] = Antibacterial activity against Aeromonas hydrophila ATCC 7966 incubated for 18 to 24 hrs by micro-dilution method; assay type: functional, Aeromonas hydrophila subsp. hydrophila ATCC 7966
[12] = system: Enterococcus faecalis; assay: Antibacterial activity against clinical isolate of Enterococcus faecalis incubated for 18 to 24 hrs by micro-dilution method; assay type: functional

| SMILES | MIC [1] [µM] | hemolysis at 1 h, 100 µM [2] [%] | MIC [3] [µM] | MIC [4] [µM] | MIC [5] [µM] | MIC [6] [µM] | MIC [7] [µM] | MIC [8] [µM] | MIC [9] [µM] | MIC [10] [µM] | MIC [11] [µM] | MIC [12] [µM] |
| --- | --- | --- | --- | --- | --- | --- | --- | --- | --- | --- | --- | --- |
| O=C(OCc1cn(-c2ccccc2Cl)nn1)c1cn(C2CC2)c2cc(N3CCN(Cc4cn(-c5ccccc5Cl)nn4)CC3)c(F)cc2c1=O | 140 (≈ 100 µg/mL) | 5.85 | 8.75 (≈ 6.25 µg/mL) | 2.19 (≈ 1.56 µg/mL) | 17.5 (≈ 12.5 µg/mL) | 8.75 (≈ 6.25 µg/mL) | 35 (≈ 25 µg/mL) | 35 (≈ 25 µg/mL) | 2.19 (≈ 1.56 µg/mL) | 1.09 (≈ 0.779 µg/mL) | 35 (≈ 25 µg/mL) | 35 (≈ 25 µg/mL) |
| O=C(O)c1cn(C2CC2)c2cc(N3CCNCC3)c(F)cc2c1=O [CIPROFLOXACIN] |  | 5.23 |  | 9.43 (≈ 3.12 µg/mL) |  |  |  |  |  | 9.43 (≈ 3.12 µg/mL) |  |  |
| Cc1ccc(-n2cc(COC(=O)c3cn(C4CC4)c4cc(N5CCN(Cc6cn(-c7ccc(C)cc7Cl)nn6)CC5)c(F)cc4c3=O)nn2)c(Cl)c1 | > 135 | 5.85 | 4.21 (≈ 3.13 µg/mL) | 33.7 (≈ 25 µg/mL) | 67.3 (≈ 50 µg/mL) | 16.8 (≈ 12.5 µg/mL) | 67.3 (≈ 50 µg/mL) | 16.8 (≈ 12.5 µg/mL) | 67.3 (≈ 50 µg/mL) | 8.42 (≈ 6.25 µg/mL) | 67.3 (≈ 50 µg/mL) | 33.7 (≈ 25 µg/mL) |
| O=C(OCc1cn(-c2ccc(Cl)cc2)nn1)c1cn(C2CC2)c2cc(N3CCN(Cc4cn(-c5ccc(Cl)cc5)nn4)CC3)c(F)cc2c1=O |  | 4.73 | 2.19 (≈ 1.56 µg/mL) | 8.75 (≈ 6.25 µg/mL) | 4.37 (≈ 3.12 µg/mL) | 4.37 (≈ 3.12 µg/mL) | 35 (≈ 25 µg/mL) | 8.75 (≈ 6.25 µg/mL) | 4.37 (≈ 3.12 µg/mL) | 35 (≈ 25 µg/mL) | 35 (≈ 25 µg/mL) | 2.19 (≈ 1.56 µg/mL) |
| O=C(OCc1cn(-c2ccc(F)cc2Cl)nn1)c1cn(C2CC2)c2cc(N3CCN(Cc4cn(-c5ccc(F)cc5Cl)nn4)CC3)c(F)cc2c1=O |  | 29.8 | 2.08 (≈ 1.56 µg/mL) | 33.3 (≈ 25 µg/mL) | 33.3 (≈ 25 µg/mL) | 16.6 (≈ 12.5 µg/mL) | 33.3 (≈ 25 µg/mL) | 16.6 (≈ 12.5 µg/mL) | 16.6 (≈ 12.5 µg/mL) | 4.16 (≈ 3.12 µg/mL) | 66.6 (≈ 50 µg/mL) | 16.6 (≈ 12.5 µg/mL) |
| O=C(OCc1cn(-c2ccccc2)nn1)c1cn(C2CC2)c2cc(N3CCN(Cc4cn(-c5ccccc5)nn4)CC3)c(F)cc2c1=O | > 155 | 4.65 | 38.7 (≈ 25 µg/mL) | 9.68 (≈ 6.25 µg/mL) | > 155 | > 155 | > 155 | > 155 | > 155 | 38.7 (≈ 25 µg/mL) | > 155 | > 155 |
| O=C(OCc1cn(-c2cccc(Cl)c2Cl)nn1)c1cn(C2CC2)c2cc(N3CCN(Cc4cn(-c5cccc(Cl)c5Cl)nn4)CC3)c(F)cc2c1=O | 31.9 (≈ 25 µg/mL) | 6.58 | 3.99 (≈ 3.13 µg/mL) | 7.98 (≈ 6.25 µg/mL) | 15.9 (≈ 12.5 µg/mL) | 7.98 (≈ 6.25 µg/mL) | 15.9 (≈ 12.5 µg/mL) | 15.9 (≈ 12.5 µg/mL) | 7.98 (≈ 6.25 µg/mL) | 3.99 (≈ 3.13 µg/mL) | 31.9 (≈ 25 µg/mL) | 15.9 (≈ 12.5 µg/mL) |
| CCCCCc1ccc(-n2cc(COC(=O)c3cn(C4CC4)c4cc(N5CCN(Cc6cn(-c7ccc(CCCCC)cc7)nn6)CC5)c(F)cc4c3=O)nn2)cc1 | > 127 | 5.32 | 63.6 (≈ 50 µg/mL) | 63.6 (≈ 50 µg/mL) | > 127 | > 127 | > 127 | 31.8 (≈ 25 µg/mL) | > 127 | 127 (≈ 100 µg/mL) | > 127 | > 127 |
| O=C(OCc1cn(-c2ccc(F)c(Cl)c2)nn1)c1cn(C2CC2)c2cc(N3CCN(Cc4cn(-c5ccc(F)c(Cl)c5)nn4)CC3)c(F)cc2c1=O |  | 5.36 | 8.33 (≈ 6.25 µg/mL) | 4.16 (≈ 3.12 µg/mL) | 16.6 (≈ 12.5 µg/mL) | 16.6 (≈ 12.5 µg/mL) | 16.6 (≈ 12.5 µg/mL) | 16.6 (≈ 12.5 µg/mL) | 8.33 (≈ 6.25 µg/mL) | 8.33 (≈ 6.25 µg/mL) | 33.3 (≈ 25 µg/mL) | 16.6 (≈ 12.5 µg/mL) |
| O=C(OCc1cn(-c2ccc(F)cc2F)nn1)c1cn(C2CC2)c2cc(N3CCN(Cc4cn(-c5ccc(F)cc5F)nn4)CC3)c(F)cc2c1=O | 4.35 (≈ 3.12 µg/mL) | 9.5 | 4.35 (≈ 3.12 µg/mL) | 69.7 (≈ 50 µg/mL) | 34.8 (≈ 25 µg/mL) | 8.71 (≈ 6.25 µg/mL) | 34.8 (≈ 25 µg/mL) | 17.4 (≈ 12.5 µg/mL) | 8.71 (≈ 6.25 µg/mL) | 8.71 (≈ 6.25 µg/mL) | 69.7 (≈ 50 µg/mL) | 17.4 (≈ 12.5 µg/mL) |
